Legend:
Thrombozytenaggregation = experiment: Platelet aggregation according to Born and Cross (collagen-induced, photometric); assay type: cell-based, gesunder Versuchspersonen; conditions: collagen-induced aggregation in platelet-rich plasma of healthy subjects
Method: 1. Bestimmung der Thrombozytenaggregation nach Bom und Cross (J. Physiol. 170, 397 (1964)):
Die Thrombozytenaggregation wurde in plättchenreichem Plasma gesunder Versuchspersonen gemessen. Hierbei wurde der Verlauf der Abnahme der optischen Dichte nach Zugabe von handelsüblichem Collagen der Firma Sigma, St. Louis/USA, welches 1 mg Collagen-Fibrillen pro ml enthält, photometrisch gemessen und registriert. Aus dem Neigungswinkel der Dichtekurve wurde auf die Aggregationsgeschwindigkeit (Vmax) geschlossen. Der Punkt der Kurve, bei dem die größte Lichtdurchlässigkeit vorlag, diente zur Berechnung der "optical density" (O.D.). Zur maximalen Aggregationsauslösung werden ca. 0,01 ml der Collagenlösung zu 1 ml plättchenreichem Plasma gegeben.

narkotisierten Katze = experiment: Blood pressure lowering and positive inotropic effect in the anaesthetised cat; assay type: in vivo; conditions: 0,1 mg/kg i.v., mean of 3 cats; for Wirkungsdauer (Halbwerts-zeit): anaesthetised cats; for Blutdruck änderung in mmHg: second value of the printed pair (presumably diastolic), pentobarbital-anaesthetised cats
Method: 2. Bestimmung der blutdrucksenkenden und positiv inotropen Wirkung an der narkotisierten Katze:
Die Untersuchungen wurden an Katzen durchgeführt, die mit Pentobarbital-Natrium (40 mg/kg i.p.) narkotisiert waren. Die Tiere atmeten spontan. Der arterielle Blutdruck wurde in der Aorta abdominalis mit einem Statham-Druckwandler (P 23 Dc) gemessen. Für die Erfassung der positiv inotropen Wirkung wurde mit einem Kathetertipmanometer (Milliar PC-350 A) der Druck in der linken Herzkammer gemessen. Daraus wurde der Kontraktilitätsparameter dp/dtmax mittels eines Analogdifferenzierers gewonnen. Die zu untersuchende Substanz wurden in eine Vena femoralis injiziert Als Lösungsmittel diente Polydiol 200. Die Substanz wurde an 3 Katzen geprüft, Dosis 0,1 i.v..

Structure (SMILES)	EC50 (Thrombozytenaggregation)	Wirkungsdauer (Halbwerts-zeit) (narkotisierten Katze)	Blutdruck änderung in mmHg (narkotisierten Katze)
CC1CC(=O)NN=C1c1ccc2oc(-n3ccnc3)nc2c1 (stereo not shown) [A, 5-Methyl-6-[2-(1-imidazolyl)-benzoxazol-5-yl]-4,5-dihydro-3(2H)-pyridazinon]	31 nM	25 Minuten	-45 mmHg
CC1CC(=O)NN=C1c1ccc2nc(N3CCNCC3)oc2c1 (stereo not shown) [B, 5-Methyl-6-[2-(1-piperazinyl)-benzoxazol-6-yl]-4,5-dihydro-3(2H)-pyridazinon]	–	12 Minuten	-43 mmHg
CCOC(=O)N1CCN(c2nc3ccc(C4=NNC(=O)CC4C)cc3o2)CC1 (stereo not shown) [C, 5-Methyl-6-[2-(4-carbäthoxy-1-piperazinyl)-benzoxazol-6-yl]-4,5-dihydro-3(2H)-pyridazinon]	–	12 Minuten	-50 mmHg
CC1CC(=O)NN=C1c1ccc2[nH]c(N3CCCC3)nc2c1 (stereo not shown) [D]	–	13 Minuten	-17 mmHg
CC1CC(=O)NN=C1c1ccc2[nH]c(N3CCSCC3)nc2c1 (stereo not shown) [E, 5-Methyl-6-[2-(4-thiomorpholino)-benzimidazol-5-yl]-4,5-dihydro-3(2H)-pyridazinon]	–	10 Minuten	-12 mmHg
CC1CC(=O)NN=C1c1ccc2nc(-n3ccnc3)[nH]c2c1 (stereo not shown) [F, 5-Methyl-6-[2-(1-imidazolyl)-benzimidazol-5-yl]-4,5-dihydro-3(2H)-pyridazinon]	–	8 Minuten	-20 mmHg
